Data: patent EP0314400A1, “Therapeutically active condensed thiadiazinones” (SMITH KLINE & FRENCH LABORATORIES LIMITED, priority 1987, dated 1989)

Assays:
[1] = tested on: Anaesthetised Cats; test: Cardiac stimulant activity in vivo (anaesthetised cats); conditions: anaesthetised cats pretreated with pempidine and propranolol, administered intravenously; for ED50: Felis catus, iv, read-out: ED₅₀ (dose to increase left ventricular dp/dt max by 50%)
Description: Cardiac Stimulant Activity - In vivo (Anaesthetised Cats)
In anaesthetised cats pretreated with a ganglion blocker (pempidine) and propranolol, the compounds of the Examples cause sustained increases in left ventricular dp/dt max (this is an index of left ventricular contractility) when administered intravenously. The dose to increase left ventricular dp/dt max by 50% is given as the ED₅₀.

[2] = molecular target: PDE (type III) enzyme (obtained from cat heart homogenate); test: Inhibition of phosphodiesterase (PDE) (type III); type: biochemical; conditions: 1 µM cAMP, read-out: IC₅₀
Method: Inhibition of Phosphodiesterase (PDE) (Type III)
Following the procedure described in EPA-247,724, IC₅₀ values (the concentration of inhibitor required for 50% inhibition of enzyme activity) were obtained by incubation of a PDE (type III) enzyme (obtained from cat heart homogenate) at 1 µM cAMP and a range of inhibitor concentrations from 0.1 x IC₅₀ to 100 x IC₅₀.

Row | Compound | ED50 [1] [µmol/kg] | IC50 [2] [nM] | ED₅₀ (dose to increase left ventricular dp/dt max by 50%) [1] [µmol/kg]
1 | Cc1nccn1-c1ccc2c(c1)CC1SC(=O)NN=C21 (centres unmarked) [Example 1, 7-(2-Methyl-1H-imidazol-1-yl)-9,9a-dihydroindeno[1,2-e][1,3,4]thiadiazine-2-(3H)-one] | 0.72 | 660 | –
2 | Cc1cn(-c2ccc3c(c2)CC2SC(=O)NN=C32)cn1 (centres unmarked) [Example 2, 7-(4-Methyl-1H-imidazol-1-yl)-9,9a-dihydroindeno[1,2-e][1,3,4] thiadiazine-2-(3H)-one] | 0.46 | 410 | –
3 | Amirone [reference compound] | – | – | 5.6
